Results taken from paper PMC4915154, “Development of background-free tame fluorescent probes for intracellular live cell imaging” (Nature Communications, 2016).

Legend:
[1] = system: U-2 OS and CHO cell lines; assay: Cellular retention and efflux characteristics test (before/after washing imaging, retaining ratio RR); type: cell-based, human (U-2 OS), Chinese hamster (CHO); conditions: 30 min
From the text: To expedite an efficient strategy for ‘tame' probe development, we set up a system to predict cellular properties of fluorescent probes via phenotypic high-throughput screening (HTS), cheminformatics and statistical analysis (Fig. 1a). As the first step, we conducted phenotypic HTS to investigate cell permeability and nonspecific binding properties of the probes in a training set. We tested about 2,085 probes consisted of a wide range photophysical properties from numerous fluorophore cores such as BODIPY[12][13][14][15], xanthone, rosamine, cyanine[19][20] and ACEMAN[21]. Their cellular influx and efflux profiles were examined in two types of mammalian cells, U-2 OS and CHO. These cell lines were chosen due to their flexibility in genetic manipulation, adaptability to various culture conditions and versatility in wide biomedical research such as gene expression, toxicity screening, recombinant protein and live cell imaging. Each of the probes was added into live cells and cell image was taken after 30 min by ImageXpress Micro cellular imaging system (Molecular Device). The cells were then washed with fresh growth media, and after another 10 min, a second image was taken to check the completeness of probe washing out of the cell. The first and second imaging facilitated influx (before washing, BW) and efflux (after washing, AW) measurements, respectively (Supplementary Fig. 1).
To measure the influx and efflux of the probes, an automated quantitative intensity-based image analysis was then performed by Multi-Wavelength Cell Scoring analysis using MetaXpress High Content Image software. Retaining ratio (RR, per cent ratio of the average intensity of AW image over BW image) was computed to classify probes into the three phenotypic groups. For each cell in the image, the nuclei and cell region were segmented to provide approximate cellular boundaries. Fluorescence intensity was then quantified on a cell-by-cell basis by the following steps: (i) selecting the image of interest, (2) specifying the width of the stained cell area, (3) adjusting the intensity above local background for detection specificity, and (4) calculating fluorescence intensity with specified reporting parameters. Average fluorescence intensity for each BW and AW images was calculated for each probes and cell lines, and was then used as input in RR calculation (Supplementary Figs 2 and 3).
U-2 OS, a human osteosarcoma cell line, and CHO, a Chinese hamster ovary cell line, (from ATCC) were cultured in Dulbecco's modified eagle's medium (DMEM) (Invitrogen, CA, USA) supplemented with fetal bovine serum (FBS) (10%) and penicillin–streptomycin (1%). Materials used in the cell culture were purchased from Invitrogen. U-2 OS and CHO cells were seeded onto 96-well plate in growth media at 37 °C in the presence of 5% CO2 and were then allowed to attach and grow to 70–80% confluence. Library probes were dissolved in dimethylsulfoxide (DMSO) to make the 1 mM solution, and stored in −20 °C. Before HTS experiment, the growth media was aspirated and replaced by 200 μl fresh growth media containing probes in final concentration of 1 μM and nuclei dye Hoechst 33342. Plates were incubated for 30 min at 37 °C then were imaged using ImageXpress Micro cellular imaging system (Molecular Device) with × 10 objective lens. Immediately after image acquisition, the cells were washed with fresh growth media, and transferred back to a 37 °C cell incubator for further incubation. After 10 min, cells were again imaged (AW image). The first imaging step allowed influx measurement of BW image , while the second imaging step allowed out-flux measurement of AW image. Images of two regions per well were acquired with DAPI, FITC, TRITC or Texas Red filter sets according to probes' excitation and emission wavelength. Experiment was performed in duplicate. Cellular retention and efflux characteristics test for other synthesized probes were also done by using the same protocol. […]

U-2 OS cells = assay: Cell viability assay (MTS); type: cell-based, human; conditions: 0-10 μM, 1-16 h
Method: Cell viability was assessed using MTS assay kit (Promega). 1 × 10^5 U-2 OS cells were seeded on 10 mm culture dishes; cells were stained with or without CO-1 ([…]) for 1–16 h. After incubation, the MTS reagent was added and incubated for 4 h at 37 °C. Absorbance was determined at 490 nm using SpectraMax M2 plate reader.
Supplementary Figure 18 Cell viability test for CO-1.
Cell viability was measured by MTS assay for concentration of probe at 0 μM, 0.3 μM, 1 μM, 3 μM and 10 μM in 1 hour, 4 hours and 16 hours incubation in U-2 OS cells. Absorbance was determined at 490 nm. Each absorbance value was subtracted with blank sample (blank sample = cells containing compound at respective concentration without MTS reagent). Cell viability was calculated by: (viable cells)% = (OD of treated sample/OD of untreated sample)×100. Data are presented as the means + SD obtained from triplicate experiments.
(also on this page, place not known: 25 50 75 100 hour (%) Incubation time CO-1 0 μM μM μM 0 0.3 1 3 μM 10 μM 1 4 hours 16 hours U -2 ( blank reagent) . Cell viability)
(§1) (1 picture or pasted object on this page, not shown here)

[2] = Photostability measurements; type: physicochemical; conditions: 10 μM in PBS buffer pH 7.4 with 1% DMSO, intensive radiation of strong light source
Method: 10 μM of CO-1 solution in PBS buffer (pH 7.4) containing 1% DMSO were placed in a 96-well plates. Fluorescence measurement were recorded every 30 s interval for a total period of 12 h (Ex/Em=490/520) under a xenon flashlamp. For harsh condition experiment, photostability test was done under high intensity UV lamp (Blak Ray, 100 W, 365 nm). Plates were irradiated for 10 min up to 2.5 h at 10 cm distance.
Supplementary Figure 17 Photostability analysis of CO-1.
10 μM CO-1 solution in PBS buffer (pH 7.4) containing 1% DMSO were placed in a 96-well plates. (a) Fluorescence measurement were recorded every 30 seconds interval for a total period of 12 hours (Ex/Em = 490/520) under a xenon flashlamp. (b) Photostability test under high intensity UV lamp (Blak Ray, 100W, 365 nm). Plates were irradiated for 10 minutes up to 2.5 hours at 10 cm distance. Values are represented as means (n=3) and fitted to a non-linear regression one-phase exponential decay (GraphPad Prism 5.0)
as §1

[3] = Spectroscopic properties (absorbance, emission, extinction coefficient, quantum yield); type: physicochemical; conditions: 10 μM in DMSO
Method: Supplementary Table 9. Spectrocopic properties and purity table for CO-1 and CO-1H.
Calculated mass, experimental mass, absorbance maximum (λabs), fluorescent emission maximum (λem), extinction coefficient (ε), quantum yield (Φ), and purity. mass m/z λabs λem ε Purity […]
Absorbance and fluorescence emission data were recorded by a Synergy 4, Biotek Inc. fluorescent plate reader at 10 μM concentration in DMSO in 96-well plates. HRMS a: found mass (M-H), b: tetramethyl BODIPY was used as standard, c: purity data was calculated on the basis of the integration in HPLC trace at 254 nm.

Photostability [2]: superior photostability
ε [3]: 66668 M⁻¹ cm⁻¹
λabs [3]: 490 nm
λem [3]: 510 nm
QY (Φ) ([3]; tetramethyl BODIPY as standard): 0.66
SMILES: Cc1cc(C)n2c1C(CCNC(=O)CCC(=O)OCC1C3CCC#CCCC31)=C1C=CC=[N+]1[B-]2(F)F (centres unmarked) [CO-1]
Cellular retention after washing (probe signal) ([1]; CHO and U-2 OS cells, 1 uM probe): leave the cells after washing
Experimentally observed group ([1]; U-2 OS and CHO cell lines, probe 1 μM, imaged before and 10 min after washing): L-group (Probes (FI(BW) >200) with rapid efflux were observed to have a RR of <5%, and thus were classified into L-group)
Cell viability / toxicity (U-2 OS cells): nontoxic and did not interfere with cell proliferation
